Marks after values point to notes of the source that are not given here.
Legend:
[1] = tested on: hamsters fed with a high-cholesterol diet; assay: In vivo food cholesterol reduction (hypocholesterolemic activity); set-up: species or system golden Syrian hamsters; details: oral once a day, extract 100 mg/kg, ezetimibe 1 mg/kg
Procedure: The dry extract of example 1 was evaluated for possible hypocholesterolemic activity in hamsters fed with a high-cholesterol diet. Groups of 10 male golden Syrian hamsters were induced to hypercholesterolemia by a high cholesterol diet (g/100 g: 5.0 corn oil, 5.0 coconut oil, 0.2 cholesterol and 89.8 standard diet throughout the 28-day experimental period. After the test animals had been kept on the high cholesterol diet for 7 days, vehicle (1% Cremophor EL in phosphate buffered saline) and extract of example 1 (incorporated into said vehicle) were administered orally, starting on day 1, for 28 days at 100 mg/kg, once a day, were administered orally for 28 consecutive days. Ezetimibe, the positive control, was also administered orally (at 1 mg/kg) for 28 consecutive days. Blood was drawn in overnight fasted animals on day 1 (pre-treatment), day 8, day 15, and day 29 for measurements of serum total cholesterol (Total plasma cholesterol), high density lipoprotein (HDL), low density lipoprotein (LDL) and triglyceride (TG) levels. The measurement values on day 8, day 15, […] and day 29 were transformed into percentage. One-way ANOVA and Dunnett's test were used to ascertain difference between vehicle control and treated groups.

[2] = target: T1, Human recombinant HMG-CoA reductase (Homo sapiens, UniProt P04035); assay: HMG-CoA reductase inhibition test ([14C]mevalonate formation); assay type: biochemical; details: for inhibition at 3 µM / inhibition at 30 µM: duplicates; for HMG-CoA reductase inhibiting activity (in words): own investigations
T1 sequence (P04035 426-888 limits assumed): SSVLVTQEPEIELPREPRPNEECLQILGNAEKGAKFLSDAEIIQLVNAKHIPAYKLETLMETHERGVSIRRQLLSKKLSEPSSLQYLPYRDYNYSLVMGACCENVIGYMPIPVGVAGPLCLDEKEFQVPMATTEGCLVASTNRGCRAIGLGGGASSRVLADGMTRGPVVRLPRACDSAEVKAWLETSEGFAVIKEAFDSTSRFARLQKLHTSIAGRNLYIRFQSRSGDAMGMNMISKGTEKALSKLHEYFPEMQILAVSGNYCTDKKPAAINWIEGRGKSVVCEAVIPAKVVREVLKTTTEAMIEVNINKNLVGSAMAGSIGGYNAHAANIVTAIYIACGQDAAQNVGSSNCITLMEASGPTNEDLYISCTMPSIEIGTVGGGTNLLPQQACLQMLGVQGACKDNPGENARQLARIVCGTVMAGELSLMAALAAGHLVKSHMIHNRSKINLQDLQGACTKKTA
Procedure: Inhibition of HMG-CoA reductase was determined under following conditions. Human recombinant HMG-CoA reductase were pre-incubated with 35 ng/ml enzyme in reaction buffer, pH 7.5 (100 mM KH2PO4, 8 mM Glucose-6-Phosphate, 1 mM nicotinamide adenine dinucleotide phosphate, 4 mM ethylenediaminetetraacetic acid, 2 mM dithiothreitol, 0.6 Units glucose-6-phosphate dehydrogenase) for 15 minutes at 37° C. The reaction was initiated by addition of 2.5 μM [14C]HMG-CoA for another 20 minute incubation period and terminated by further addition of 1 N HCl. An aliquot was removed and then counted to determine the amount of [14C]Mevalonate formed. […] All samples were measured in duplicates.

Row | SMILES | inhibition at 3 µM [2] [%] | inhibition at 30 µM [2] [%] | other results
1 | O=C1[C@H](CC[C@H](O)c2ccc(F)cc2)[C@@H](c2ccc(O)cc2)N1c1ccc(F)cc1 [Ezetimibe] | – | – | LDL levels relative to day one ([1]; t = day 1 (pre-treatment)): 100%; Total plasma cholesterol levels relative to day one (pre-treatment) ([1]; t = day 1 (pre-treatment)): 100%; LDL levels relative to day one ([1]; t = day 15): 22%*; Total plasma cholesterol levels relative to day one (pre-treatment) ([1]; t = day 15): 61%*; LDL levels relative to day one ([1]; t = day 29): 15%*; Total plasma cholesterol levels relative to day one (pre-treatment) ([1]; t = day 29): 41%*
2 | O=c1c(O[C@@H]2O[C@H](CO)[C@H](O)[C@H](O)[C@H]2O)c(-c2ccc(O)c(O)c2)oc2cc(O)cc(O)c12 [Quercetin-3-O-beta-D-galactopyranoside] | 75 | – | HMG-CoA reductase inhibiting activity (in words) [2]: very good HMG-CoA reductase inhibiting activity
3 | C[C@@H]1CC[C@]2(C(=O)O)CC[C@]3(C)C(=CC[C@@H]4[C@@]5(C)CC[C@@H](O)[C@](C)(CO)[C@@H]5CC[C@]43C)[C@@H]2[C@]1(C)O [Barbinervic acid] | – | 37 | –

Now from value to compound, other results behind:

Row | inhibition at 3 µM [2] [%] | inhibition at 30 µM [2] [%] | SMILES | other results
4 | 0 | 0 | C[C@H]1[C@H](C)CC[C@]2(C(=O)O)CC[C@]3(C)C(=CC[C@@H]4[C@@]5(C)CC[C@H](O)C(C)(C)[C@@H]5CC[C@]43C)[C@H]12 [Ursolic acid] | –
5 | 91 | – | C[C@@H]1CC[C@]2(C(=O)O)CC[C@]3(C)C(=CC[C@@H]4[C@@]5(C)C[C@@H](O)[C@@H](O)C(C)(C)[C@@H]5CC[C@]43C)[C@@H]2[C@]1(C)O [Euscaphic acid] | HMG-CoA reductase inhibiting activity (in words) [2]: strongest HMG-CoA reductase inhibiting activity
6 | – | 25 | C[C@@H]1CC[C@]2(C(=O)O)CC[C@]3(C)C(=CC[C@@H]4[C@@]5(C)CC[C@H](O)C(C)(C)[C@@H]5CC[C@]43C)[C@@H]2[C@]1(C)O [Pomolic acid] | –
7 | 100 | 100 | CC[C@H](C)C(=O)O[C@H]1C[C@@H](C)C=C2C=C[C@H](C)[C@H](CC[C@@H]3C[C@@H](O)CC(=O)O3)[C@H]21 [Lovastatin] | –
